Measured values: patent US20080207592A1, “Novel 1,4-benzothiazepine-1,1-dioxide derivative having improved properties, method for the production thereof, medicaments containing said compound, and use thereof” (SANOFI-AVENTIS DEUTSCHLAND GMBH, priority 2005, published 2008)

Molecular target: T1, recombinantly expressed human sodium-dependent ileal bile acid transporter (IBAT) (Homo sapiens, UniProt Q12908)
T1 construct: Bases 599 to 1645 correspond to the complete coding region of the human IBAT; expressed in transfected cells
T1 sequence (Q12908 1-348): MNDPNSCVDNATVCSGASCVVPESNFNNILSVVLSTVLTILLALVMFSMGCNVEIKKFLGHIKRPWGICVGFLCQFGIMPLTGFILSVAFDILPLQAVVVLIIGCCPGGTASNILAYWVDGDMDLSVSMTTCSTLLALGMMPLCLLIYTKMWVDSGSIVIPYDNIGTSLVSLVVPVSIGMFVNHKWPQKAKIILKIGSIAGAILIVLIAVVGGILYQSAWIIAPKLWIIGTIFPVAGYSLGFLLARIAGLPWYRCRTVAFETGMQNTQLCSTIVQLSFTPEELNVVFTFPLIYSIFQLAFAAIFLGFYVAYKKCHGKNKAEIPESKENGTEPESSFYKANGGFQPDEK
Experiment: in vitro IBAT inhibition test ([3H]-taurocholic acid uptake into CHO-hIBAT cells)
Format: cell-based
Settings: for IC50: CHO-hIBAT cells, taurocholic acid 10 μM, 60 min at room temperature
Protocol: Biological testing of the compound A according to the invention was carried out using the in vitro IBAT inhibition test. This test examines the effect of the compound according to the invention on the transport activity of the recombinantly expressed human sodium-dependent ileal bile acid transporter (IBAT=ileal Na^+/bile acid contransporter, ASBT=apical sodium-dependent bile acid transporter, SLC10A2=solute carrier family 10, member 2).
The cDNA (complementary deoxyribonucleic acid) of human IBAT was cloned using standard methods of molecular biology as described, for example, in Molecular Cloning: A Laboratory Manual, by Joseph Sambrook and David Russell, and introduced into the pcDNA1 vector from Invitrogen. […] Bases 599 to 1645 correspond to the complete coding region of the human IBAT.
The expression vector for the human IBAT was introduced by means of stable transfection into CHO (Chinese hamster ovary) cells. To select single cell clones, 400 μg/ml of geneticin was added to the cell culture medium (Ham's F12 medium supplemented with 10% fetal calf serum, 100 units/ml of penicillin, 100 units/ml of streptomycin). The functionality of the single cell clones resulting from the selection was tested via their uptake activity for radioactively labeled taurocholic acid ([^3H]-TCA). […]
CHO-hIBAT cells were sown at a concentration of 40 000 cells per well in cell culture medium in poly-D-lysine-coated 96-well plates and cultivated for 24 h. […] Finally, 100 μl of scintillation fluid were added to each well, and the radioactivity taken up into the cells was determined in a MicroBeta scintillation microplate reader from Wallac.
The half-maximal inhibitory effect of the test compound (IC50 value, inhibitory concentration 50) was determined as follows:
1. […] This is the value measured in the absence of substance, measured in sodium-comprising transport assay buffer.
2. […] This is the value measured in the absence of substance, measured in sodium-free transport assay buffer. […]

SMILES | IC50 | activity compared to comparative example from EP 1 169 313 (higher) (relative to compound 11a of EP 1 169 313, from IC50 (human IBAT))
CCCCC1(CCCC)CS(=O)(=O)c2ccc(N(C)C)cc2[C@@H](c2cccc(NC(=O)NC[C@H](O)[C@@H](O)[C@H](O)[C@H](O)CO)c2)N1 [Example A] | 0.155 µM | 206%
CCCCC1(CCCC)CS(=O)(=O)c2ccc(N(C)C)cc2[C@@H](c2cccc(NC(=O)[C@H](O)[C@@H](O)[C@H](O)[C@H](O)CO)c2)N1 [compound 11a, reference compound] | 0.319 µM | 
